Values of other authors as cited in US20040265272A1, “Mammalian cell-infecting virus vector encoding epitope-bound beta2m and utilization thereof” (priority 2001, published 2004).

System: CTL
Settings: HLA-A24- or HLA-A26-restricted peptide; cancer patients

SART-1 690-698: HLA-A24-restricted peptide of the SART-1 antigen (EYRGFTQDF; UniProt O43290 690-698, looked up, fragment)
CTL induction: strongly induced CTL

SART-1 736-744: HLA-A26-restricted peptide of the SART-1 antigen (KGSGKMKTE; UniProt O43290 736-744, looked up, fragment)
CTL induction: induced CTL in cancer patients with HLA-A2601, -A2602, or -A2603
